Assay results from ChEMBL document CHEMBL1128632, “The discovery of a series of new non-indole 5HT1D agonists” (Bioorg Med Chem Lett, 1995).

Assays:
Canis familiaris = organism: Canis familiaris; test: Effective dose required to induce constriction of dog saphenous vein segments; type: functional; conditions: Canis lupus familiaris, read-out: ED50 (the source's name)
[1] = biological target: T1, 5-hydroxytryptamine receptor 1A (Homo sapiens, UniProt P08908); test: Ability to bind to 5-hydroxytryptamine 1A receptor subtype from cloned human expressed in Ha7 cells; type: cell-based
T1 sequence (P08908 whole entry): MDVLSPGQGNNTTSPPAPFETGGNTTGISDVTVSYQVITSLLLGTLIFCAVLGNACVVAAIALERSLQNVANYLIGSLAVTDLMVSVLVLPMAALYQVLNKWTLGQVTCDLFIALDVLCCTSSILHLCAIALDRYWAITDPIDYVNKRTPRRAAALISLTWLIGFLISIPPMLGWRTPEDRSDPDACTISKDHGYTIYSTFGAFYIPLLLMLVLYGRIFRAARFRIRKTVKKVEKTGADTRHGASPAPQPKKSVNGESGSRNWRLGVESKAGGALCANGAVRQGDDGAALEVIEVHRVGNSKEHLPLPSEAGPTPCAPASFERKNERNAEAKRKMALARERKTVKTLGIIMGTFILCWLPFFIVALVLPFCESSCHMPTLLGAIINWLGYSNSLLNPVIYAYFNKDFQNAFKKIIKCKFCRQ

Sus scrofa [2] = organism: Sus scrofa; test: Ability to induce constriction of pig basilary artery.; type: functional; conditions: read-out: ED50 (the source's name)
[3] = biological target: T1, 5-hydroxytryptamine receptor 1A; test: Ability to bind to 5-hydroxytryptamine 1A receptor from cloned human expressed in Ha7 cells; type: cell-based
Sus scrofa [4] = organism: Sus scrofa; test: Ability to induce constriction of pig basilary artery; type: functional; conditions: read-out: ED50 (the source's name)

Structure (SMILES)	EC50 (Canis familiaris) [nM]	IC50 [1] [nM]	IC50 [3] [nM]	further results
COc1ccc2c(c1)CCC(CNCCCNC1=NCCCN1)O2 (stereo not given)	> 1000	> 1000	–	–
COc1cccc2c1CCC(CNCCCNC1=NCCCN1)O2 (stereo not given)	> 1000	> 1000	–	–
c1ccc2c(c1)CCC(CNCCCNc1nccs1)O2 (stereo not given)	570	–	1.58	–
c1ccc2c(c1)CCC(CNCCCNc1ccncn1)O2 (stereo not given)	78.7	–	5.01	–
c1ccc2c(c1)CCC(CNCCCNc1nc3ccccc3[nH]1)O2 (stereo not given)	> 1000	–	> 100	–
c1ccc2c(c1)OCC(CNCCCNC1=NCCCN1)O2 (stereo not given)	66.5	–	20	–
c1cnc(NCCCNCC2CCc3ccccc3O2)nc1 (stereo not given)	> 100	–	2	–
CNS(=O)(=O)Cc1ccc2[nH]cc(CCN(C)C)c2c1	160	–	–	EC50 (Sus scrofa [4]): 558 nM
c1ccc2c(c1)CCC(CNCCCNC1=NCCCN1)C2 (stereo not given)	615	–	126	–
CN1c2ccccc2CCC1CNCCCNC1=NCCCN1 (stereo not given)	> 1000	–	> 1000	–
c1ccc(NCCCNCC2CCc3ccccc3O2)nc1 (stereo not given)	380	–	1.26	–
O=C1CCCN=C(NCCCNCC2CCc3ccccc3O2)N1 (stereo not given)	> 1000	–	2	–
CC(C)/N=C(\NC#N)NCCCNCC1CCc2ccccc2O1 (stereo not given)	115	–	15.8	–
Clc1ccc(NCCCNCC2CCc3ccccc3O2)nn1 (stereo not given)	> 100	–	0.398	–
c1ccc2c(c1)NCC(CNCCCNC1=NCCCN1)O2 (stereo not given)	> 1000	–	> 1000	–
CC1(CNCCCNC2=NCCCN2)CCc2ccccc2O1 (stereo not given)	> 1000	–	> 1000	–
c1ccc2c(c1)CC(CNCCCNC1=NCCCN1)O2 (stereo not given)	> 1000	–	50.1	–
c1ccc2c(c1)CC(CNCCCNC1=NCCCN1)CO2 (stereo not given)	> 1000	–	> 1000	–
c1cnc(NCCNCC2CCc3ccccc3O2)nc1 (stereo not given)	60	–	31.6	–
c1ccc2c(c1)CCCC(CNCCCNC1=NCCCN1)O2 (stereo not given)	> 1000	–	> 1000	–

Now those with a lower EC50 (Canis familiaris), led by results:

EC50 (Canis familiaris) [nM]	IC50 [1] [nM]	IC50 [3] [nM]	Structure (SMILES)	further results
51.5	–	50.1	c1ccc2c(c1)CC[C@@H](CNCCCNC1=NCCCN1)O2	–
49.4	15.8	–	c1ccc2c(c1)CCC(CNCCNC1=NCCCN1)O2 (stereo not given)	–
31.5	–	12.6	c1ccc2c(c1)CCC(CNCCCNC1=NCCN1)O2 (stereo not given)	–
19.7	25.1	–	Fc1ccc2c(c1)CCC(CNCCCNC1=NCCCN1)O2 (stereo not given)	–
17.8	12.6	–	COc1ccc2c(c1)OC(CNCCCNC1=NCCCN1)CC2 (stereo not given)	–
17	–	6.31	c1ccc2c(c1)CCC(CNCCCNC1=NCCCC1)O2 (stereo not given)	–
15.5	–	3.98	c1ccc2c(c1)CCC(CNCCCNc1cnccn1)O2 (stereo not given)	–
15.2	5.01	–	c1ccc2c(c1)CCC(CNCCCCCNC1=NCCCN1)O2 (stereo not given)	–
11	7.94	–	c1ccc2c(c1)CCC(CNCCCCNC1=NCCCN1)O2 (stereo not given)	–
9.09	–	5.01	c1ccc2c(c1)CC[C@H](CNCCCNC1=NCCCN1)O2	EC50 (Sus scrofa [2]; Sus scrofa): 22.9 nM; EC50 (Sus scrofa [2]): 29.2 nM
4.8	7.94	–	CC(C)/N=C(\N)NNCCCNCC1CCc2ccccc2O1 (stereo not given)	–
4.53	12.6	–	c1ccc2c(c1)CCC(CNCCCNC1=NCCCN1)O2 (stereo not given)	–
2.09	5.01	–	COc1cccc2c1OC(CNCCCNC1=NCCCN1)CC2 (stereo not given)	–
1.93	3.98	–	CCc1ccc2c(c1)OC(CNCCCNC1=NCCCN1)CC2 (stereo not given)	–
